20 compounds from ChEMBL document CHEMBL5523733, “Small Molecule Targeting PPM1A Activates Autophagy for Mycobacterium tuberculosis Host-Directed Therapy” (J Med Chem, 2024) can be followed below.

Active and inactive are the calls of the source. The rule behind the calls is not given here.

Data set [1] concerns the target T1, Protein phosphatase 1A (Homo sapiens, UniProt P35813).
T1 sequence (P35813 whole entry): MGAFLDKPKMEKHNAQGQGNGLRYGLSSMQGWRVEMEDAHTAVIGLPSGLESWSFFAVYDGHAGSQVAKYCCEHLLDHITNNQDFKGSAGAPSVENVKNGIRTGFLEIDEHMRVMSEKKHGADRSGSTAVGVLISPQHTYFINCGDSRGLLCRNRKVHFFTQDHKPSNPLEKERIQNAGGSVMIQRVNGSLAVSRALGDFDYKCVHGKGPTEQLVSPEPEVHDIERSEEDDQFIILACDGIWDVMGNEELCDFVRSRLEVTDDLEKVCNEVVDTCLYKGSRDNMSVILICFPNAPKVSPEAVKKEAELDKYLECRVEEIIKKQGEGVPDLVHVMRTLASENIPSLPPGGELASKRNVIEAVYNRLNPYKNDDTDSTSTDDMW
Put plainly: Inhibition of recombinant human PPM1A using pNPP as substrate preincubated for 15 mins followed by substrate addition measured after 20 mins by absorbance based assay.

The nature of data set [2]: Cytotoxicity against human THP-1 cells by resazurin dye based assay. The format is toxicity, cell-based. In general terms: The colour change of resazurin is a common sign of viable cells or microbes.
The nature of data set [3]: Cytotoxicity against human Caco-2 cells by resazurin dye based assay. The format is toxicity, cell-based.
Data set [4] relates to dsDNA. The data set is described as follows: Binding affinity to dsDNA (unknown origin) of 10 uM assessed as reduction in fluorescence intensity at 5 uM relative to control. The format is nucleic-acid assay. On the set-up: scale not given: the % may be the effect or the level left.
Data set [5] concerns THP-1. The data set is described as follows: Induction of DNA damage in human THP-1 monocytes assessed as increase in gamma-H2AX at 1 uM incubated for 24 hrs by Western blot analysis. The class given is toxicity, cell-based. The settings on record: thp-1, 24 h.
Data set [6] has as its system THP-1. The data set is described as follows: Induction of DNA damage in human THP-1 macrophages assessed as increase in gamma-H2AX at 10 uM incubated for 24 hrs by Western blot analysis. The class given is toxicity, cell-based. As to conditions: thp-1, 24 h. On the technique in general: A western blot detects proteins with antibodies after separation by electrophoresis.

The subject of data set [7] is dsDNA. Put plainly: Binding affinity to dsDNA (unknown origin) of 5 uM assessed as reduction in fluorescence intensity at 5 uM relative to control. On the set-up: scale not given: the % may be the effect or the level left. The format is nucleic-acid assay.
Data set [8] deals with THP-1. The data set is described as follows: Cytotoxicity against human THP-1 monocytes assessed as cell viability at 10 uM incubated for 24 hrs by flow cytometry. As to conditions: thp-1, 24 h. The class given is toxicity, cell-based.
Data set [9] relates to dsDNA. The data set is described as follows: Binding affinity to dsDNA (unknown origin) assessed as reduction in fluorescence intensity at 5 uM. The format is nucleic-acid assay.
Data set [10] relates to THP-1. The data set is described as follows: Induction of DNA damage in human THP-1 monocytes assessed as increase in gamma-H2AX at 0.1 to 10 uM incubated for 24 hrs by Western blot analysis. The class given is toxicity, cell-based. As to conditions: thp-1, 24 h, dose 0.1-10 µM.
Data set [11] relates to THP-1. The data set is described as follows: Induction of DNA damage in human THP-1 macrophages assessed as increase in gamma-H2AX at 0.1 to 10 uM incubated for 24 hrs by Western blot analysis. The format is toxicity, cell-based. As to conditions: thp-1, 24 h, dose 0.1-10 µM.
Data set [12] deals with T1, Protein phosphatase 1A. The data set is described as follows: Inhibition of PPM1A (unknown origin).
Data set [13] deals with THP-1. Put plainly: Cytotoxicity against human THP-1 monocytes assessed as cell viability at 0.1 to 10 uM incubated for 24 hrs by flow cytometry. The class given is toxicity, cell-based. The settings on record: thp-1, 24 h, dose 0.1-10 µM. A general note: Flow cytometry measures light scatter and fluorescence of single cells or particles in a stream.
The test system of data set [14] is THP-1. Put plainly: Cytotoxicity against human THP-1 macrophages assessed as cell viability at 0.1 to 10 uM incubated for 24 hrs by flow cytometry. The class given is toxicity, cell-based. As to conditions: thp-1, 24 h, dose 0.1-10 µM.

Regarding `COc1cc2c[n+](CCO)c3ccc(F)cc3c2cc1-c1ccc(F)cc1`, the half-inhibitory concentration (IC50) on Protein phosphatase 1A [1] was greater than 20 µM.
With `COc1ccc2c(c1)c1ccc(OC(F)(F)F)cc1c[n+]2CCO`, on Protein phosphatase 1A [1], the IC50 came out at 3.06 µM.
Same read-out and setting: for `COc1ccc2c(c1)c[n+](CCO)c1ccc(Cl)cc21` the value was greater than 20 µM; for `Cc1ccc2c(c1)c[n+](CCO)c1ccc(F)cc21`, greater than 20 µM.
Still for that read-out and setting: to `CCCCOc1ccc2c(c1)c[n+](CCO)c1ccc(F)cc21` belongs 3.56 µM; to `COc1cc2c[n+](CCO)c3ccc(F)cc3c2cc1-c1ccc2c(c1)OCO2`, greater than 20 µM.
In the case of `OCC[n+]1cc2cc3c(cc2c2cc(F)ccc21)OCO3`, on Protein phosphatase 1A [1], the IC50 is greater than 20 µM.
On the same count and under the same terms, for `COc1ccc2c(c1)c[n+](CCO)c1ccc(C)cc21` the value was greater than 20 µM.
For `OCC[n+]1cc2cc(OC(F)(F)F)ccc2c2cc(F)ccc21`, at Protein phosphatase 1A [1], the IC50 worked out at 1.43 µM. Further, the CC50 in data set [2] and in data set [3] was greater than 200 µM throughout.
As to `COc1cc2c[n+](CCO)c3ccc(F)cc3c2cc1-c1cc(C)cc(C)c1`, the 50% inhibitory concentration (IC50) on Protein phosphatase 1A [1] was greater than 20 µM.
For `COc1cc2c[n+](CCO)c3ccc(F)cc3c2cc1C#Cc1ccccc1`, the IC50 at Protein phosphatase 1A [1] is greater than 10 µM.
Same read-out and setting: to `CCOc1ccc2c(c1)c1ccc(OC)cc1c[n+]2CCO` belongs greater than 20 µM.
As to `COc1ccc2c(c1)c[n+](CCO)c1ccc(OC)cc21`, the IC50 on Protein phosphatase 1A [1] came to 2.6 µM. The CC50 is 47.2 µM in data set [2] and greater than 200 µM in [3].
Regarding `COc1ccc2c(c1)c[n+](C(CO)CO)c1ccc(F)cc21`, the IC50 at Protein phosphatase 1A [1] was greater than 20 µM.
In the case of `C[n+]1cc2c3c(ccc2c2ccc4cc5c(cc4c21)OCO5)OCO3` [SANGUINARIUM], the Activity in the data set on dsDNA [4] was 93%; in the data set on THP-1 [5], “Toxic”; with THP-1 [6], “Toxic”; in the data set on dsDNA [7] it was 84%; with THP-1 [8] it was “Toxic”.
Regarding `COc1ccc2c(c1)c[n+](Cc1cccc(O)c1)c1ccc(F)cc21`, the half-inhibitory concentration (IC50) at Protein phosphatase 1A [1] is greater than 20 µM.
Take `COc1ccc2c(c1)c[n+](CC(C)O)c1ccc(F)cc21` (centres undefined): the IC50 on Protein phosphatase 1A [1] was greater than 20 µM.
`COc1ccc2c(c1)c[n+](CCO)c1ccc(F)cc21.[Br-]`: the result with dsDNA [9] was inactive. The Activity entry with THP-1 [10], with THP-1 [11], in the data set with THP-1 [13] and in the data set on THP-1 [14] was “Non-Toxic” in each case. The IC50 on Protein phosphatase 1A [1] stood at 1.19 µM; against Protein phosphatase 1A [12], 1190 nM. Besides, the values for the CC50 in data set [2] and in data set [3] were 94.8 µM and greater than 200 µM, respectively. The compound also yielded a Ki on Protein phosphatase 1A [12] of 840 nM.
As for `COc1cc2c[n+](CCO)c3ccc(F)cc3c2cc1OC`, the IC50 at Protein phosphatase 1A [1] was greater than 20 µM.
As for `COc1ccc2c(c1)c[n+](CCO)c1ccc(Br)cc21`, at Protein phosphatase 1A [1], the half-inhibitory concentration (IC50) is 4.51 µM. In addition, the CC50 came to 68 µM in data set [2] and 185 µM in data set [3].

As a reminder, the IC50 is the concentration at which inhibition is half-maximal. As usually defined, the CC50 is the concentration giving 50% cytotoxicity. What is called Ki is the equilibrium dissociation constant of an inhibitor or competing ligand from its target.
